{"source": "paper PMC7469376", "about": "(ACS Omega, 2020)", "key": {"[1]": {"test_system": "A549 cells", "assay": "MTT cell viability assay, A549", "format": "cell-based", "conditions": "Homo sapiens, A549, 48 h, read-out: IC50, cell viability (MTT)"}, "[2]": {"test_system": "H1299 cells", "assay": "MTT cell viability assay, H1299", "format": "cell-based", "conditions": "Homo sapiens, NCI-H1299, 48 h, read-out: IC50, cell viability (MTT)"}, "[3]": {"test_system": "HEK293", "conditions": "read-out: IC50 against HEK293; after 72 h of treatment; ref Storch et al. 94; cited from earlier work"}, "[4]": {"target": "T1, SphK1 (Homo sapiens, UniProt Q9NYA1)", "T1 sequence (Q9NYA1 whole entry)": "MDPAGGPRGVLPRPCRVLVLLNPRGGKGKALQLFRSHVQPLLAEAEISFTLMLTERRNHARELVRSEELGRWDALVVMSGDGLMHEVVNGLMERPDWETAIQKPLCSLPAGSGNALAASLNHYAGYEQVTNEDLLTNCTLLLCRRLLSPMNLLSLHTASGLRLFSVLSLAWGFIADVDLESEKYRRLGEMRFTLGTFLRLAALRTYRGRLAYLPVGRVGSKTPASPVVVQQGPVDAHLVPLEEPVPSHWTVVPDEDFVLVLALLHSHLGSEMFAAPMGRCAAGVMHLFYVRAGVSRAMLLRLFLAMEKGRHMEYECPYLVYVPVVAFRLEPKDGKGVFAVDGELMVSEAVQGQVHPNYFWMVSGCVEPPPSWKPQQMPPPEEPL", "assay": "Malachite green-based ATPase enzyme inhibition assay", "format": "biochemical"}, "[5]": {"test_system": "caspase-3 activity in A549 cells", "assay": "Caspase-3 colorimetric assay, A549", "format": "cell-based, human", "conditions": "50 and 100 μM, 24 h, compared to untreated cells"}, "[6]": {"target": "T1, SphK1", "assay": "Isothermal titration calorimetry of harmaline with SphK1", "format": "binding"}, "[7]": {"test_system": "caspase-3 activity in H1299 cells", "assay": "Caspase-3 colorimetric assay, H1299", "format": "cell-based, human", "conditions": "50 and 100 μM, 24 h, compared to untreated cells"}}, "data": [{"smiles": "COc1ccc2c3c([nH]c2c1)C(C)=NCC3", "note": "[harmaline]", "values": [{"measurement": "IC50", "setting": "[1]", "value": "67.9 ± 2.91", "unit": "µM"}, {"measurement": "IC50", "setting": "[2]", "value": "48.2 ± 1.76", "unit": "µM"}, {"measurement": "IC50", "setting": "[3]", "value": "> 200", "unit": "µM"}, {"measurement": "IC50", "setting": "[4]; IC50, SphK1 ATPase activity, harmaline 0 to 30 μM, three independent experiments", "value": 6.13, "unit": "µM"}, {"measurement": "hill slope of SphK1 inhibition curve", "setting": "[4]; three-parameter Hill fit", "value": 0.57}, {"measurement": "caspase-3 activity (free pNA liberated per hour)", "setting": "[5]", "value": "gradual increase in the caspase-3 activity"}, {"measurement": "association constant Ka1", "setting": "[6]; ITC, site 1", "value": "Ka1 = 1.89 × 10^4 ± 1.3 × 10^3 M^–1"}, {"measurement": "enthalpy change ΔH1", "setting": "[6]; ITC, site 1", "value": "ΔH1 = −3205 ± 197 cal/mol"}, {"measurement": "ΔG1 (free energy change)", "setting": "[6]; ITC, site 1", "value": "ΔG1 = −5.83 kcal/mol"}, {"measurement": "ΔS1", "setting": "[6]; ITC, site 1", "value": "ΔS1 = 8.82 cal/mol/deg"}, {"measurement": "association constant Ka2", "setting": "[6]; ITC, site 2", "value": "Ka2 = 1.49 × 10^5 ± 8.6 × 10^3 M^–1"}, {"measurement": "enthalpy change ΔH2", "setting": "[6]; ITC, site 2", "value": "ΔH2 = 1895 ± 257 cal/mol"}, {"measurement": "ΔG2 (free energy change)", "setting": "[6]; ITC, site 2", "value": "ΔG2 = −7.04 kcal/mol"}, {"measurement": "ΔS2", "setting": "[6]; ITC, site 2", "value": "ΔS2 = 30.0 cal/mol/deg"}, {"measurement": "association constant Ka3", "setting": "[6]; ITC, site 3", "value": "Ka3 = 3.50 × 10^4 ± 2.0 × 10^3 M^–1"}, {"measurement": "enthalpy change ΔH3", "setting": "[6]; ITC, site 3", "value": "ΔH3 = 272.3 ± 190 cal/mol"}, {"measurement": "ΔG3 (free energy change)", "setting": "[6]; ITC, site 3", "value": "ΔG3 = −5.99 kcal/mol"}, {"measurement": "ΔS3", "setting": "[6]; ITC, site 3", "value": "ΔS3 = 21.7 cal/mol/deg"}, {"measurement": "association constant Ka4", "setting": "[6]; ITC, site 4", "value": "Ka4 = 4.58 × 10^3 ± 2.9 × 10^2 M^–1"}, {"measurement": "enthalpy change ΔH4", "setting": "[6]; ITC, site 4", "value": "ΔH4 = −9574 ± 467 cal/mol"}, {"measurement": "ΔG4 (free energy change)", "setting": "[6]; ITC, site 4", "value": "ΔG4 = −4.98 kcal/mol"}, {"measurement": "ΔS4", "setting": "[6]; ITC, site 4", "value": "ΔS4 = −15.4 cal/mol/deg"}, {"measurement": "Kd", "setting": "[6]; dissociation constant KD1, ITC, site 1", "value": 52.9, "unit": "µM"}, {"measurement": "Kd", "setting": "[6]; dissociation constant KD2, ITC, site 2", "value": 6.7, "unit": "µM"}, {"measurement": "Kd", "setting": "[6]; dissociation constant KD3, ITC, site 3", "value": 28.6, "unit": "µM"}, {"measurement": "Kd", "setting": "[6]; dissociation constant KD4, ITC, site 4", "value": 218, "unit": "µM"}, {"measurement": "caspase-3 activity (free pNA liberated per hour)", "setting": "[7]", "value": "gradual increase in the caspase-3 activity"}]}]}
